Reference: paper PMC3130141 (Archives of Drug Information, 2011)

Key:
[1] = test system: Japanese patients with advanced solid tumors; experiment: Laboratory assessments; format: in vivo, human; details: for Blood sodium decreased, patients with grade ≥3 abnormal laboratory finding: cut-off <130 mmol/L; for Lymphocyte count decreased, patients with grade ≥3 abnormal laboratory finding / Lymphopenia, patients with grade ≥3 abnormal laboratory finding: cut-off <0.5 × 10^9/L; for Neutropenia, patients with grade ≥3 abnormal laboratory finding: cut-off <1.0 × 10^9/L; for Leukopenia, patients with grade ≥3 abnormal laboratory finding: cut-off <2.0 × 10^9/L; for Hemoglobin decreased, patients with grade ≥3 abnormal laboratory finding: cut-off <8.0 g/dL; for Thrombocytopenia, patients with grade ≥3 abnormal laboratory finding: cut-off <50.0 × 10^9/L; for Weight decreased, patients with grade ≥3 abnormal vital sign: cut-off ≥20% from baseline
[2] = test system: Western patients with solid tumors; details: cited from earlier work
[3] = test system: human tumor xenograft models including a primary bladder tumor model and the rituximab-insensitive non-Hodgkin's lymphoma model, DoHH2T53; details: cited from earlier work
[4] = Cycle 1, Day 8, Total, all doses (N = 18)
[5] = Cycle 1, Day 15, Total, all doses (N = 18)
[6] = Cycle 1, Day 22, Total, all doses (N = 18)

## Cc1ccc(C(=O)N(CCCN)C(c2nc3snc(C)c3c(=O)n2Cc2ccccc2)C(C)C)cc1 (stereo not drawn) [AZD4877]
[1]; 10 mg (N = 3)
  Any grade ≥3 finding/vital sign, patients with grade ≥3 abnormal laboratory findings/vital signs: 1 (33) N (%)
  Blood sodium decreased, patients with grade ≥3 abnormal laboratory finding: 0 N (%)
  Lymphocyte count decreased, patients with grade ≥3 abnormal laboratory finding: 0 N (%)
  Lymphopenia, patients with grade ≥3 abnormal laboratory finding: 0 N (%)
  Neutropenia, patients with grade ≥3 abnormal laboratory finding: 1 (33) N (%)
  Leukopenia, patients with grade ≥3 abnormal laboratory finding: 0 N (%)
  Hemoglobin decreased, patients with grade ≥3 abnormal laboratory finding: 0 N (%)
  Thrombocytopenia, patients with grade ≥3 abnormal laboratory finding: 0 N (%)
  Weight decreased, patients with grade ≥3 abnormal vital sign: 0 N (%)
[1]; 15 mg (N = 3)
  Any grade ≥3 finding/vital sign, patients with grade ≥3 abnormal laboratory findings/vital signs: 1 (33) N (%)
  Blood sodium decreased, patients with grade ≥3 abnormal laboratory finding: 0 N (%)
  Lymphocyte count decreased, patients with grade ≥3 abnormal laboratory finding: 0 N (%)
  Lymphopenia, patients with grade ≥3 abnormal laboratory finding: 0 N (%)
  Neutropenia, patients with grade ≥3 abnormal laboratory finding: 1 (33) N (%)
  Leukopenia, patients with grade ≥3 abnormal laboratory finding: 0 N (%)
  Hemoglobin decreased, patients with grade ≥3 abnormal laboratory finding: 0 N (%)
  Thrombocytopenia, patients with grade ≥3 abnormal laboratory finding: 0 N (%)
  Weight decreased, patients with grade ≥3 abnormal vital sign: 0 N (%)
[1]; 20 mg (N = 6)
  Any grade ≥3 finding/vital sign, patients with grade ≥3 abnormal laboratory findings/vital signs: 4 (67) N (%)
  Blood sodium decreased, patients with grade ≥3 abnormal laboratory finding: 1 (17) N (%)
  Lymphocyte count decreased, patients with grade ≥3 abnormal laboratory finding: 0 N (%)
  Lymphopenia, patients with grade ≥3 abnormal laboratory finding: 0 N (%)
  Neutropenia, patients with grade ≥3 abnormal laboratory finding: 3 (50) N (%)
  Leukopenia, patients with grade ≥3 abnormal laboratory finding: 3 (50) N (%)
  Hemoglobin decreased, patients with grade ≥3 abnormal laboratory finding: 0 N (%)
  Thrombocytopenia, patients with grade ≥3 abnormal laboratory finding: 0 N (%)
  Weight decreased, patients with grade ≥3 abnormal vital sign: 1 (17) N (%)
[1]; 25 mg (N = 6)
  Any grade ≥3 finding/vital sign, patients with grade ≥3 abnormal laboratory findings/vital signs: 6 (100) N (%)
  Blood sodium decreased, patients with grade ≥3 abnormal laboratory finding: 0 N (%)
  Lymphocyte count decreased, patients with grade ≥3 abnormal laboratory finding: 1 (17) N (%)
  Lymphopenia, patients with grade ≥3 abnormal laboratory finding: 1 (17) N (%)
  Neutropenia, patients with grade ≥3 abnormal laboratory finding: 5 (83) N (%)
  Leukopenia, patients with grade ≥3 abnormal laboratory finding: 5 (83) N (%)
  Hemoglobin decreased, patients with grade ≥3 abnormal laboratory finding: 1 (17) N (%)
  Thrombocytopenia, patients with grade ≥3 abnormal laboratory finding: 1 (17) N (%)
  Weight decreased, patients with grade ≥3 abnormal vital sign: 0 N (%)
[1]; 25 mg dose cohort
  Patients experiencing grade ≥3 neutropenia: five of six
[1]; Cycle 1, Day 8, 10 mg (N = 3)
  Platelet count, mean (SD): 227.3 (36.7) 10^3/µL
  Total ANC (absolute neutrophil count), mean (SD): 2.00 (0.37) 10^3/µL
  White blood cell count, mean (SD): 4.13 (0.63) 10^3/µL
[1]; Cycle 1, Day 8, 15 mg (N = 3)
  Platelet count, mean (SD): 229.0 (35.9) 10^3/µL
  Total ANC (absolute neutrophil count), mean (SD): 3.23 (1.26) 10^3/µL
  White blood cell count, mean (SD): 5.50 (1.48) 10^3/µL
[1]; Cycle 1, Day 8, 20 mg (N = 6)
  Platelet count, mean (SD): 245.7 (45.5) 10^3/µL
  Total ANC (absolute neutrophil count), mean (SD): 1.81 (0.99) 10^3/µL
  White blood cell count, mean (SD): 2.97 (1.06) 10^3/µL
[1]; Cycle 1, Day 8, 25 mg (N = 6)
  Platelet count, mean (SD): 246.5 (99.7) 10^3/µL
  Total ANC (absolute neutrophil count), mean (SD): 2.00 (0.97) 10^3/µL
  White blood cell count, mean (SD): 3.01 (0.99) 10^3/µL
[1]; [4]
  Platelet count, mean (SD): 240.1 (62.6) 10^3/µL
  Total ANC (absolute neutrophil count), mean (SD): 2.14 (1.01) 10^3/µL
  White blood cell count, mean (SD): 3.60 (1.37) 10^3/µL
[1]; Cycle 1, Day 15, 10 mg (N = 3)
  Platelet count, mean (SD): 203.3 (46.5) 10^3/µL
  Total ANC (absolute neutrophil count), mean (SD): 1.25 (0.27) 10^3/µL
  White blood cell count, mean (SD): 3.59 (0.69) 10^3/µL
[1]; Cycle 1, Day 15, 15 mg (N = 3)
  Platelet count, mean (SD): 217.0 (6.1) 10^3/µL
  Total ANC (absolute neutrophil count), mean (SD): 2.33 (1.62) 10^3/µL
  White blood cell count, mean (SD): 4.66 (2.19) 10^3/µL
[1]; Cycle 1, Day 15, 20 mg (N = 6)
  Platelet count, mean (SD): 265.2 (79.5) 10^3/µL
  Total ANC (absolute neutrophil count), mean (SD): 1.49 (0.82) 10^3/µL
  White blood cell count, mean (SD): 2.82 (1.20) 10^3/µL
[1]; Cycle 1, Day 15, 25 mg (N = 6)
  Platelet count, mean (SD): 184.5 (85.1) 10^3/µL
  Total ANC (absolute neutrophil count), mean (SD): 0.57 (0.50) 10^3/µL
  White blood cell count, mean (SD): 1.58 (0.57) 10^3/µL
[1]; [5]
  Platelet count, mean (SD): 219.9 (73.9) 10^3/µL
  Total ANC (absolute neutrophil count), mean (SD): 1.28 (0.99) 10^3/µL
  White blood cell count, mean (SD): 2.84 (1.55) 10^3/µL
[1]; Cycle 1, Day 22, 10 mg (N = 3)
  Platelet count, mean (SD): 205.0 (54.0) 10^3/µL
  Total ANC (absolute neutrophil count), mean (SD): 1.68 (0.35) 10^3/µL
  White blood cell count, mean (SD): 4.09 (0.66) 10^3/µL
[1]; Cycle 1, Day 22, 15 mg (N = 3)
  Platelet count, mean (SD): 232.0 (7.9) 10^3/µL
  Total ANC (absolute neutrophil count), mean (SD): 2.30 (1.50) 10^3/µL
  White blood cell count, mean (SD): 4.53 (1.70) 10^3/µL
[1]; Cycle 1, Day 22, 20 mg (N = 6)
  Platelet count, mean (SD): 262.2 (48.0) 10^3/µL
  Total ANC (absolute neutrophil count), mean (SD): 1.25 (0.69) 10^3/µL
  White blood cell count, mean (SD): 2.64 (0.69) 10^3/µL
[1]; Cycle 1, Day 22, 25 mg (N = 6)
  Platelet count, mean (SD): 308.7 (117.3) 10^3/µL
  Total ANC (absolute neutrophil count), mean (SD): 1.41 (0.48) 10^3/µL
  White blood cell count, mean (SD): 2.73 (0.68) 10^3/µL
[1]; [6]
  Platelet count, mean (SD): 263.1 (81.1) 10^3/µL
  Total ANC (absolute neutrophil count), mean (SD): 1.55 (0.79) 10^3/µL
  White blood cell count, mean (SD): 3.23 (1.14) 10^3/µL
[1]; Total, all doses (N = 18)
  Any grade ≥3 finding/vital sign, patients with grade ≥3 abnormal laboratory findings/vital signs: 12 (67) N (%)
  Blood sodium decreased, patients with grade ≥3 abnormal laboratory finding: 1 (6) N (%)
  Lymphocyte count decreased, patients with grade ≥3 abnormal laboratory finding: 1 (6) N (%)
  Lymphopenia, patients with grade ≥3 abnormal laboratory finding: 1 (6) N (%)
  Neutropenia, patients with grade ≥3 abnormal laboratory finding: 10 (56) N (%)
  Leukopenia, patients with grade ≥3 abnormal laboratory finding: 8 (44) N (%)
  Hemoglobin decreased, patients with grade ≥3 abnormal laboratory finding: 1 (6) N (%)
  Thrombocytopenia, patients with grade ≥3 abnormal laboratory finding: 1 (6) N (%)
  Weight decreased, patients with grade ≥3 abnormal vital sign: 1 (6) N (%)
[1]; all doses, 18 patients
  Grade ≥3 leukopenia (laboratory finding), patients: 44%
  Grade ≥3 neutropenia (laboratory finding), patients: 56%
[2]; 25 mg, clinical setting
  Monoaster formation (proof of mechanism): evidence of monoaster formation
[2]; 25 mg
  Tolerability in Western patients: acceptable tolerability profile
[2]; 30 mg, parallel US study
  Toxicity at 30 mg: experienced neutropenia
[2]; parallel US study
  Recommended dose for further evaluation: 25 mg
[2]; weekly treatment
  Best objective tumor response in Western patients: stable disease ≥12 weeks
[3]
  Activity in human tumor xenograft models: activity was observed
